Legend:
[1] = system: HeLa cells; assay: Cell viability after irradiation, MTT test; type: cell-based; conditions: 365 nm 30 seconds or 405 nm 60 seconds; normalized to non-irradiated m7GG; single determination
Protocol: 3×10^4 cells in HeLa cell media (100 μL) were transferred in one well of a 96 well-plate. After 24 h the cells were transfected with Metafectene® Pro (0.3 μL) in MEM Earle's media (4.7 μL) and modified mRNA (0.1 μg) in MEM Earle's media (5 μL) for 6 h at 37° C. in a total volume of 100 μL. For subsequent toxicity assays, the media containing the transfection reagent was removed and cells were incubated overnight in fresh serum-free HeLa cell media. Cellular lethality was checked using the LDH Cytotoxicity Detection Kit, cellular viability was checked using the Vybrant® MTT Cell Proliferation Assay Kit (A volume of 100 μL 0.04 M HCl in 2-propanol was used instead of SDS-HCl solution to dissolve the formazan.) and cellular proliferation was checked using the BrdU Cell Proliferation Assay Kit. In each case, 24 h after transfection, absorbance was measured photometrically using the Tecan Infinite® M1000 Pro according to the manufacturer's instructions.
To evaluate the cell viability after irradiation, a MTT test was used as described above. HeLa cells were irradiated (5 V, 600 mA) with either 365 nm (m7GG 365, DMNB 365) or 405 nm (m7GG 405, DMNB 405) for 30 seconds (365 nm) or 60 seconds (405 nm). The values were normalized to the non-irradiated sample (m7GG).

[2] = system: Reticulocyte Lysate; assay: In vitro translation of capped FLuc-mRNA and luminescence measurement; type: biochemical; conditions: capped FLuc-mRNA
Protocol: In vitro translation was performed using a eukaryotic cell free protein expression kit from Reticulocyte Lysate (Invitrogen). Experiments were performed in 12.5 μL total volume containing 20 ng of the corresponding FLuc-mRNAs, 50 μM L-methionine and 150 mM potassium acetate. Samples were mixed with 8.5 μL of the reticulocyte lysate and incubated for 90 min at 30° C. Afterwards, 2 μL of the respective translation mix were used in subsequent luminescence measurement. The translation efficiency of the reporter mRNAs was assessed in a luciferase assay using Beetle-juice Luciferase Assay Firefly (pjk). Luciferase activity was determined by adding 50 μL freshly prepared substrate solution to the translation mixture. Luminescence was monitored using a Tecan Infinite® m1000pro microplate reader with an acquisition time of 3 s (duration of signal acquisition).
The photocleavable 5′-cap analog of formula (7) was used for in vitro transcription to make FLuc mRNA as described above. This was used for in vitro translation and Luminescence measurement as described above. The commercial non-modified cap analog denoted “m^7GpppG” (Jena Bioscience) was used as positive control. Samples were irradiated for 30 seconds. The ApppG capped mRNA, which is not recognized by the translation initiation factor served as negative control, which is substracted from the other samples as it represents background activity. The experiment was performed in quadruplicates. The FLuc-mRNA capped with the photocleavable 5′-cap analog of formula (7) is denoted “ONB”.
The in vitro translation assay and luminescence measurement was performed as described above using the photocleavable 5′-cap analog of formula (12). The capped mRNA was denoted “DMNB-m^7GpCH2ppG capped FLuc-mRNA”. Samples were irradiated for 30 seconds (365 nm) or 60 seconds (405 nm). The commercial non-modified cap analog denoted “m^7GpppG” (Jena Bioscience) was used as positive control and all other samples were normalized to it. The ApppG capped mRNA, which is not recognized by the translation initiation factor served as negative control, which is substracted from the other samples as it represents background activity. The experiment was performed in triplicates, except *DMNB-m7GpCH2ppG (365 nm) which was a single determination.
The in vitro translation assay in reticulocyte lysate and luminescence measurement was performed as described above using m^7GpppG capped FLuc-mRNA caged with the photocleavable 5′-cap analog of formulas (22) and (25) (denoted “DMNB m^7GpppG” and “NPOM m^7GpppG”). Samples were irradiated for 30 seconds at 365 nm. The ApppG capped mRNA, which is not recognized by the translation initiation factor served as negative control, which was substracted from the other samples as it represents background activity. The values were normalized to the non-irradiated sample with m^7GpppG capped mRNA (100%). The experiment was performed in triplicates.
The in vitro translation assay in reticulocyte lysate and luminescence measurement was performed as described above using m^7GpppG capped FLuc-mRNA with modified nucleotides m^5C and N^1methyl-pseudouridine caged with the photocleavable 5′-cap analog of formulas (22) and (25) (denoted “DMNB m^7GpppG mod” and “NPOM m^7GpppG mod”). Samples were irradiated for 30 seconds at 365 nm. The ApppG capped mRNA, which is not recognized by the translation initiation factor served as negative control, which was substracted from the other samples as it represents background activity. The values were normalized to the non-irradiated sample with m^7GpppG capped mRNA (100%). The experiment was performed in triplicates.

For `COc1cc(COC(=O)Nc2nc3c(c(=O)[nH]2)[n+](C)cn3[C@@H]2O[C@H](COP(=O)(O)CP(=O)(O)OP(=O)(O)OC[C@H]3O[C@@H](n4cnc5c(=O)[nH]c(N)nc54)C(O)C3O)C(O)C2O)c([N+](=O)[O-])cc1OC` (stereo partly drawn) [compound 12, P1-(N^2-(4,5-Dimethoxy-2-nitrobenzyl)oxycarbonyl-7-methylguanosin-5′-yl)-P3-guanosin-5′-yl 1,2-methylenetriphosphate], the “cell viability (MTT)” value [1] was “only slightly decreased”, the “in vitro translation (luminescence) after irradiation” value ([2]; 30 seconds (365 nm) or 60 seconds (405 nm)) was “partially restored” and the “in vitro translation (luminescence), non-irradiated” value ([2]; non-irradiated, normalized to m^7GpppG capped mRNA) was “successfully inhibited to a high degree”.

Reference: patent US20250276994A1, “CAP ANALOG FOR THE 5'-END OF EUKARYOTIC MESSENGER RNAS” (WESTFÄLISCHE WILHELMS-UNIVERSITÄT, priority 2021, published 2025)
